Assay: Visual solubility in organic solvent on successive addition of water
Format: physicochemical
Conditions: 1 mg/100 μl in THF, ACN, acetone, DMSO, DMF, methanol, ethanol; 10 μl water added successively until precipitation
Protocol: If the active compound is insoluble in an organic solvent, this solvent is less suitable for the production of nanoparticles. If a clear solution is formed, in each case equal defined amounts of aqueous solvent are added stepwise and mixed in each case until precipitation of the active compound is visible after addition and mixing (visual solubility). The assessment of visual solubility is carried out visually in a suitable container, preferably in a glass tube having a small diameter, for example as are customary in gas chromatography (diameter of 0.5 cm, height 3 cm), under cold light, which preferably radiates upward, against a dark surface, preferably against a black surface, as background. A diagrammatic representation of the procedure is depicted in FIG. 1.
For loading experiments, the active compounds dexamethasone and 5-[2-(2-fluorophenyl)-1,8-naphthyridin-4-yl]-2,6-naphthyridin-1-ylamine (also called active compound B below) were used. For solvent selection, the active compounds were each dissolved in the following solvents with a concentration of 1 mg/100 μl: tetrahydrofuran (THF), acetonitrile (ACN), acetone, dimethyl sulfoxide (DMSO), dimethylformamide (DMF), methanol, ethanol. Additionally, 0.1% of trifluoroacetic acid (v/v) were added to each organic solution of active compound B in order to establish an apparent “pH”. […]

In the case of `C[C@@H]1C[C@H]2[C@@H]3CCC4=CC(=O)C=C[C@]4(C)[C@@]3(F)[C@@H](O)C[C@]2(C)[C@@]1(O)C(=O)CO` [dexamethasone], the visual solubility is reported as “increased visual solubility in tetrahydrofuran”.

From US10561733B2, “Process for producing nanoparticles laden with active ingredient” (Merck Patent GmbH, priority 2012, dated 2020)
